Values joined by “and” are separate entries in the source; they are usually repeats but may differ in a detail not shown here. Equal values may be shown once. “Also recorded” adds a separate entry of the source. Read-outs that look alike come from different tables or passages of the source.
What was measured:
[1] = molecular target: T1, SARS-CoV-2 NSP3 macrodomain (Severe acute respiratory syndrome coronavirus 2, UniProt P0DTD1); assay: X-ray fragment screening (XChem, crystal soaking); format: binding
[2] = molecular target: T1, SARS-CoV-2 NSP3 macrodomain; assay: NSP3 macrodomain HTRF assay, displacement of ADP-ribose-conjugated biotin peptide; format: binding; settings: HTRF assay, up to 5 mM concentration
SARS-CoV-2 = assay: microbe, parasite or virus in culture; format: cell-based; settings: for EC50: Vero E6 cells, 48 h post infection, read-out: EC50, blocking SARS-CoV-2 replication

CC1C(=O)NC(=O)N1c1ccc(Cl)cc1 (stereo not drawn) [SX051]
X-ray screen result, binding site [1]: identified in the active site | activity in the NSP3 enzyme assay (in words) [2]: no activity | Inhibition (%) of viral copy numbers (SARS-CoV-2; 10 uM, replicates): 0% and 9.716% and 1.026% | viral copy numbers normalized to the control (untreated infected cells) (SARS-CoV-2; 10 uM, replicates): 2.076 and 0.9028 and 0.9897 | Inhibition (%) of viral copy numbers (SARS-CoV-2; 100 uM, replicates): 32.89% and 37.84% | viral copy numbers normalized to the control (untreated infected cells) (SARS-CoV-2; 100 uM, replicates): 0.7145 and 0.6711 and 0.6216 | Inhibition (%) of viral copy numbers (SARS-CoV-2; 250 uM, replicates): 83.75% and 96.5% and 61.73% | viral copy numbers normalized to the control (untreated infected cells) (SARS-CoV-2; 250 uM, replicates): 0.1625 and 0.03502 and 0.3827 | Inhibition (%) of viral copy numbers (SARS-CoV-2; 500 uM, replicates): 86.97% and 88.23% | viral copy numbers normalized to the control (untreated infected cells) (SARS-CoV-2; 500 uM, replicates): 0.2487 and 0.1303 and 0.1177 | Inhibition (%) of viral copy numbers (SARS-CoV-2; 750 uM, replicates): 96.17% and 94.15% | viral copy numbers normalized to the control (untreated infected cells) (SARS-CoV-2; 750 uM, replicates): 0.05523 and 0.03827 and 0.05848 | Inhibition (%) of viral copy numbers (SARS-CoV-2; 1000 uM, replicates): 100% and 99.81% | viral copy numbers normalized to the control (untreated infected cells) (SARS-CoV-2; 1000 uM, replicates): 0.003839 and 0 and 0.001919 | inhibition at 100 µM (SARS-CoV-2; Severe acute respiratory syndrome coronavirus 2, Vero C1008, 100 uM, replicates, read-out: Inhibition (%) of viral copy numbers): 28.5% | inhibition at 500 µM (SARS-CoV-2; Severe acute respiratory syndrome coronavirus 2, Vero C1008, 500 uM, replicates, read-out: Inhibition (%) of viral copy numbers): 75.1% | inhibition at 750 µM (SARS-CoV-2; Severe acute respiratory syndrome coronavirus 2, Vero C1008, 750 uM, replicates, read-out: Inhibition (%) of viral copy numbers): 94.5% | inhibition at 1000 µM (SARS-CoV-2; Severe acute respiratory syndrome coronavirus 2, Vero C1008, 1000 uM, replicates, read-out: Inhibition (%) of viral copy numbers): 99.6% | EC50 (SARS-CoV-2; Severe acute respiratory syndrome coronavirus 2, Vero C1008, 48 h): 136 µM | EC50 (SARS-CoV-2): 136 µM | antiviral activity in the cellular assay (in words) (SARS-CoV-2; infected Vero E6 cells): high micromolar range; also recorded: Significant antiviral activities
